Data set [1] relates to WiDr human colon adenocarcinoma cells. Briefly: In vitro activity against human tumour cell line WiDr (proliferation). It counts as cell-based. Particulars: 96 h. The method, then:
(§1) Cells from the human tumour cell lines DLD-1, HCT-116, WiDr and A549 are exposed to serially diluted concentrations of test compounds over a 96 hour period in culture. The ability of such cells to proliferate over the test period is determined.
(§2) Cells in log growth are plated into 96 well multiwell tissue culture dishes in 100 μl/well of RPMI 1640 culture medium supplemented with 10% foetal calf serum, antibiotics and test compound. All compounds are formulated initially at appropriate concentrations in DMSO, the final concentrations in this solvent being twenty times that required in the plate. A final 1 in 10 dilution in complete medium is then made before adding 100 μl to each well of the plate. All compounds are evaluated at concentrations ranging serially in four fold decrements from a top concentration some four fold greater than that already known to inhibit the proliferation of cells from the mouse lymphoid neoplasm, P388D1 by about 80 to 90 percent in a primary proliferative assay.
(§3) After 96 hours the proliferation of cells exposed to test compound is compared with control untreated cells by one of two methods:
(§4) b) 20 μl of MTT (5 mg/ml in PBS) is added to each well. After an incubation period of 4 hours the medium from each well is aspirated and replaced with 200 μl DMSO to dissolve the formazan crystals formed. Absorbances are read by an ELISA plate spectrophotometer at a wavelength of 540 nm. The IC50 is defined as that concentration of drug which decreases absorbance to 50% of that in control (drug-free) cultures. This method is used for the WiDr, HCT-116 and A549 cell lines.

Data set [2] relates to DLD-1 human colon carcinoma cells. Briefly: In vitro activity against human tumour cell line DLD-1 (proliferation). Particulars: DLD-1, 96 h. Type of data set: cell-based. The method, then: as §1, §2, §3
a) Culture supernatants are aspirated and cells fixed and stained by adding a solution of methylene blue (5 g per liter of 50% ethanol: water, 100 μl/well). After 30 minutes at room temperature unbound stain is washed off by immersing plates in water. Stained cells are solubilised overnight using 1% Sarkosyl (Sigma) in phosphate-buffered saline (100 μl/well). Absorbances are read by an ELISA plate spectrophotometer at a wavelength of 620 nm. The IC50 is defined as that concentration of drug which decreases absorbance to 50% of that in control (drug-free) cultures. This method is used for the DLD-1 cell line.

For another data set, the system named is tubulin. Briefly: Turbidimetric assay of tubulin polymerisation. It counts as biochemical, horse. Particulars: 37° C., increase in A350nm 10 min after lag phase; read-out: Total tubulin polymerisation IC50. The method, then:
A) Tubulin Polymerisation Assay
1. Preparation of tubulin
All manipulations are performed at 4° C. unless otherwise specified. The horse brain is washed in ice-cold BBG buffer and superficial meninges and blood vessels removed. After weighing, cerebral cortices are chopped, homogenised in 75 ml BBG buffer/100 g brain, centrifuged at 6500 g for 15 min and after removal of […], re-centrifuged at 100,000 g for 75 min. The volume of the supernatant (Vml) is measured and V/10 ml 10 mM GTP (Li salt) in H2 O added. The mixture is incubated in sealed centrifuge tubes (30 min, 34° C.) in a shaking water bath to polymerise the tubulin. After polymerisation the tubes are balanced and centrifuged at 100,000 g, (1 h at 27° C.) in a pre-warmed rotor. The high-speed pellet is resuspended in V/4 ml BB buffer and the preparation stirred on ice for 30 min and centrifuged at 100,000 g (1 h at 4° C.) to remove the cold-stable microtubules. An equal volume of BB2G buffer is added to the supernatant which is frozen rapidly in 5 ml samples in plastic weighing dishes floated on a solid CO2 /ethanol slurry, and stored overnight at -80° C. After ca. 18 hours the frozen samples of tubulin are thawed, 10 mM GTP in H2 O added to give a final concentration of 1 mM, and the new volume (Wml), is measured. The polymerisation/depolymerisation cycle is repeated exactly as above but substituting W for V to give twice-cycled tubulin.
2. Turbidimetric Assay of Tubulin Polymerisation
Apparatus: recording spectrophotometer with a 6-position, thermostatted cuvette holder; full scale deflection=0.2 absorbance units.
In a 1 ml spectrophotometer cuvette are mixed 100 μl 10 mM GTP (Li salt) made up in BB buffer, 10 μl H2 O or DMSO-depending on selected drug solvent, BB buffer and tubulin preparation such that the final increase in A350nm is 0.15 units after 16 mins (approx. 100 μl of tubulin prep. or 2.5 mg protein) in a final volume of 1 ml at 37° C. All reagents are stored on ice.
Polymerisation is initiated by raising the temperature to 37° C. and the increase in A350nm of triplicate samples against a reference cuvette is recorded. The reference sample includes a similar incubation mixture either without tubulin or with the addition of 1 mM Ca^2+. The increase over initial A350nm 10 min after the completion of lag phase (control polymerisation is 80% complete within this time) is calculated and expressed as a percentage of the control value, for a range of drug concentrations. The drug concentration required to give a 50% change (IC50) in the control value is determined.

A further data set is described as follows: LD20 (Mouse). It counts as in vivo. Particulars: i.p. days 1, 5 and 9, CD2-F1 mice, observed up to 14 days.
Data set [3] relates to HCT-116 human colon carcinoma cells. Briefly: In vitro activity against human tumour cell line HCT-116 (proliferation). It counts as cell-based. Particulars: HCT-116, 96 h. The method, then:
as §1, §2, §3, §4

For a further data set, the system named is P388/O tumour. Briefly: Lymphocytic leukaemia P388/O test. It counts as in vivo, mouse. The protocol:
C. Lymphocytic Leukemia P388/O Test
CD2-F1 mice, of the same sex, weighing within a 3 gram range surrounding 20 g, are used for this test. Control and test animals are injected intraperitoneally with a suspension of 10^6 viable P388/O tumour cells on day 0. In each test several dose levels which bracket the LD20 for the compound are evaluated; each dose level group contains 6 animals. The test compounds are prepared either in physiologic saline containing 0.05% Tween 80 or distilled water containing 5% dextrose and are administered intraperitoneally on days 1,5 and 9 relative to tumour implant. Doses are on a mg/kg basis according to individual animals' body weights. The day of death for each animal is recorded and the median day of death identified for each group. The difference between the median survival time for treated and control groups is expressed as a percentage increase in life span (% ILS).

The test system of data set [4] is A549 human lung carcinoma cells. Briefly: In vitro activity against human tumour cell line A549 (proliferation). Type of data set: cell-based. Particulars: A549, 96 h. The method, then:
as §1, §2, §3, §4

For a further data set, the system named is P388 D1 cells. Nature of the data set: P388 D1 colony-forming assay. It counts as cell-based. Particulars: Mus musculus. The protocol:
B) P338D1 Colony-forming Assay
In this assay, cells from an in vitro-adapted line of the mouse lymphoid neoplasm, P388 are first exposed to serially diluted concentrations of test compound over a 24 hour period in culture. Thereafter, the ability of such treated cells to form discrete colonies over a 14 day period after resuspension in a semi-solid drug-free medium is determined.
Initially cells in log growth are plated into individual 25 cm^2 tissue culture flasks each containing a final volume of 5 mls of Hepes buffered RPMI 1640 culture medium supplemented with 10 percent foetal calf serum, antibiotics and test compound. All compounds are formulated initially at appropriate concentrations in DMSO, 25 microliters of which is then added to each flask. All compounds are evaluated at concentrations ranging serially in four fold decrements from a top concentration some four fold greater than that already known to inhibit the proliferation of these cells by about 80 to 90 percent in the primary proliferative assay.
After 24 hrs exposure to the test compound the cells are counted and a known number of live cells transferred to a 15 ml centrifuge tube to which 4 mls of a 0.25 percent low temperature gelling agarose solution in complete RPMI tissue culture medium is then added. After 13 days incubation at 37° C., 1 ml of 1% p-Iodonitrotetrazolium violet is added to the top of each tube and allowed to permeate through the agarose for a further 24 to 48 hrs. This dye is metabolised by living cells to produce an insoluble red crystalline product which facilitates counting of the colonies. Samples are taken from each tube and the number of colonies containing a minimum of 50 cells is determined. The concentration of compound necessary to inhibit colony formation by 50 percent relative to that of control cells incubated under identical conditions but in the absence of the test compound is determined.

Where [5] appears, read: P388D1, 24 h exposure, 14 days colony growth, read-out: IC50 colony formation.
[6] abbreviates: Mus musculus, P388, ip, 200 mg/kg i.p. days 1, 5 and 9.
[7] abbreviates: Mus musculus, P388, ip, 675 mg/kg i.p. days 1, 5 and 9.

Each structure is given as a SMILES string. Like-named read-outs stand apart in the source and are kept apart here. Some results are limits rather than exact numbers.

In general, IC50 refers to the concentration needed to halve the response being measured. As usually defined, the LD50 is the dose at which mortality reaches 50%. Read a low LD50 as greater toxicity. Usually ILS stands for how much longer treated animals lived than controls.

Regarding `CCOC(=O)Nc1cn2nc(OCc3cc(OC)ccc3OC)ccc2n1` [Example 2, Ethyl N-[6-(2,5-Dimethoxybenzyloxy)imidazo[1,2-b]pyridazin-2-yl]carbamate], the IC50 in data set [1] turned out to be 4.57 nM; in data set [2], 2.9 nM; in the data set on tubulin, 140 nM; in data set [3], 2.8 nM; in data set [4] it was 3.42 nM; in the data set with P388 D1 cells (P388D1, read-out: IC50 colony formation), 0.516 nM. For the same molecule, in the data set “LD20 (Mouse)”, the LD50 came out at 5 mg/kg. Further, the ILS at 7.3 mg/kg with P388/O tumour (Mus musculus, P388, ip) was determined as 31%.
As to `COC(=O)Nc1cn2nc(OCc3cc(OC)ccc3OC)ccc2n1` [Example 3, Methyl N-[6-(2,5-Dimethoxybenzyloxy)imidazo[1,2-b]pyridazin-2-yl]carbamate], the concentration for half-maximal inhibition (IC50) amounted to 0.92 nM in data set [1] (MTT, read-out: IC50); 1.35 nM in data set [2] (methylene blue, read-out: IC50); 410 nM with tubulin; 1.91 nM in data set [3] (MTT, read-out: IC50); 1.92 nM in data set [4]; 2.15 nM in the data set with P388 D1 cells (setting [5]). Moreover, in the data set “LD20 (Mouse)”, the LD50 turned out to be 200 mg/kg. Moreover, the increase in life span (ILS) at 50 mg/kg with P388/O tumour (Mus musculus, P388, ip, 50 mg/kg i.p. days 1, 5 and 9) was 136%.
For the molecule `CCCOC(=O)Nc1cn2nc(OCc3cc(OC)c(OC)c(OC)c3)ccc2n1` [Example 4, n-Propyl N-[6-(3,4,5-trimethoxybenzyloxy)imidazo[1,2-b]pyridazin-2-yl]carbamate], the IC50 in data set [1] (MTT, read-out: IC50) was 11 nM; in data set [2] (methylene blue, read-out: IC50), 6.63 nM; in the data set on tubulin, 370 nM; in data set [3] (MTT, read-out: IC50) it was 5.45 nM; in data set [4] (MTT, read-out: IC50) it was 20.8 nM; in the data set with P388 D1 cells (setting [5]) it was 5.12 nM. In the data set “LD20 (Mouse)”, this molecule displayed an LD50 of 20 mg/kg. The ILS at 20 mg/kg in the data set on P388/O tumour (Mus musculus, P388, ip, 20 mg/kg i.p. days 1, 5 and 9) is 44%.
For the molecule `COC(=O)Nc1cn2nc(OCc3cccc4ccccc34)ccc2n1` [Example 9, Methyl N-[6-(1-Naphthylmethyloxy)imidazo[1,2-b]pyridazin-2-yl]carbamate], the concentration for half-maximal inhibition (IC50) with tubulin stood at 890 nM. This molecule showed an LD50 in “LD20 (Mouse)” of 450 mg/kg. The molecule also showed an ILS at 200 mg/kg in the data set with P388/O tumour (setting [6]) of 180%.
Consider `COC(=O)Nc1cn2nc(OCc3cc(OC)cc(OC)c3)ccc2n1` [Example 11, Methyl N-[6-(3,5-Dimethoxybenzyloxy)imidazo[1,2-b)pyridazin-2-yl]carbamate], for which the IC50 in the data set on tubulin came to 4240 nM. Further, the LD50 in “LD20 (Mouse)” was > 450 mg/kg. For the same molecule, in the data set with P388/O tumour (675 mg/kg i.p. days 1, 5 and 9), the “30 Day survivors” value is 1/6 and the “60 Day Survivors” value is on record as 0/6. The ILS at 675 mg/kg with P388/O tumour (setting [7]) worked out at 155%. The IC50 in the data set with P388 D1 cells (setting [5]) is 41 nM.
`COC(=O)Nc1cn2nc(OCc3cccc(C)c3)ccc2n1` [Example 12, Methyl N-[6-(3-methylbenzyloxy)imidazo[1,2-b]pyridazin-2-yl]carbamate]: the IC50 in the data set with tubulin turned out to be 1210 nM. Also, the LD50 in the data set “LD20 (Mouse)” was > 450 mg/kg. In addition, the ILS at 675 mg/kg in the data set on P388/O tumour (setting [7]) amounted to 170%.
The molecule `COC(=O)N(C)c1cn2nc(OCc3cc(OC)c(OC)c(OC)c3)ccc2n1` [Example 26, Methyl N-[N-Methyl-6-(3,4,5-trimethoxybenzyloxy)imidazo[1,2-b]pyridazin-2-yl]carbamate] came in with an LD50 in “LD20 (Mouse)” of 450 mg/kg. The same molecule gave an ILS at 300 mg/kg with P388/O tumour (Mus musculus, P388, ip, 300 mg/kg i.p. days 1, 5 and 9) of 263%.
On to `COC(=O)Nc1cn2nc(OCc3cc(OC)c(OC)c(OC)c3Br)ccc2n1` [Example 31, Methyl N-[6-(2-bromo-3,4,5-trimethoxybenzyloxy)imidazo[1,2-b]pyridazin-2-yl]carbamate], for which, in “LD20 (Mouse)”, the LD50 was 165 mg/kg.
Consider `COC(=O)Nc1cn2nc(OCc3cccc(OC)c3OC)ccc2n1` [Example 32, Methyl N-[6-(2,3-dimethoxybenzyloxy)imidazo[1,2-b]pyridazin-2-yl]carbamate], for which, in the data set “LD20 (Mouse)”, the LD50 was > 450 mg/kg. Further, the “60 Day Survivors” value in the data set on P388/O tumour (750 mg/kg i.p. days 1, 5 and 9) is given as 1/6. This molecule gave an ILS at 750 mg/kg with P388/O tumour (Mus musculus, P388, ip, 750 mg/kg i.p. days 1, 5 and 9) of 280%.
With `CCOc1c(OC)cc(COc2ccc3nc(NC(=O)OC)cn3n2)cc1OC` [Example 33, Methyl N-[6-(3,5-dimethoxy-4-ethoxybenzyloxy)imidazo[1,2-b]pyridazin-2-yl]carbamate], the “60 Day Survivors” value in the data set with P388/O tumour ((Day 51), 200 mg/kg i.p. days 1, 5 and 9) is 3/6. Further, the ILS at 200 mg/kg with P388/O tumour (setting [6]) was 240%.

The record behind these values is US5380759A, “Methyl N-[6-(3,4,5-trimethoxybenzloxy)imidazo[1,2-b]pyridazin-2-zyl]carbamate used to treat leukemia” (priority 1987, dated 1995).
